Data from US20040126418A1, “Transdermal administration of MENT” (The Population Council, Inc., priority 1997, published 2004).

Tests used:
[1] = In vitro permeation (flux) across rat skin, modified Franz diffusion cell; assay type: in vitro ADME, Sprague-Dawley rats
Excerpt: The flux of a specific formulation can be determined using a modified Franz diffusion cell as discussed herein. First, skin from female Sprague-Dawley rats (200-250 g body weight) can be obtained. The rats are anesthetized, the abdominal skin shaved and then excised. Excess fat and connective tissues are removed. The skin (1.77 cm^2) is sandwiched between the two chambers of a modified Franz diffusion cell, with the surface of the skin facing the upper (donor) chamber of the cell. A measured amount of the androgen containing formulation is applied to the surface of the skin, so that the skin is completely covered. The lower (recipient) chamber is filled with sterile saline, which completely bathes the lower surface of the rat skin. The contents of the recipient chamber are constantly stirred with a magnetic stirrer. Aliquots of the saline in the recipient chamber is removed at predetermined intervals and analyzed by HPLC. The saline remains in constant contact with the skin at all times. The Franz cell is maintained at 37° C. for the duration of each test.
An in vitro modified Franz cell system as described in Example 2 was used to study the permeability of testosterone and MENT from various transdermal dosage forms through rat skin. Various topical cream, gel and patch formulations were tested. The concentration of testosterone and MENT in all of the gels and creams described herein was 2 mg per gram of gel or cream. The following formulations were tested: […]
The gel (nearly identical to formulation T from Example 1) was produced by taking all of the aqueous components and mixing them under medium agitation in one vessel and all the organic, non-aqueous materials and mixing them in a separate vessel. The organic mixture and aqueous mixture were then mixed together using medium agitation provided by a paddle mixer. Of course, a lightning mixer or magnetic stirrer could also be used. The viscosity profile of the gel produced is illustrated in FIG. 20. Steroid permeation (in vitro) across Rat Skin for each of these gel formulations were tested using a two chambers of a modified Franz diffusion cell as previously described. Skin from female Sprague-Dawley rats (200-250 g body weight) were used in these studies. The rats were anesthetized, the abdominal skin was shaved and excised. Excess fat and connective tissues were removed. The skin (1.77 cm^2) was sandwiched between the two chambers of a modified Franz diffusion cell, with the surface of the skin facing the upper (donor) chamber of the cell. Approximately 0.5 gm of gel (1 mg steroid) was applied to the surface of the skin, so that the skin was completely covered with the gel. The lower (recipient) chamber was filled with 11.4 ml of sterile saline, which completely bathed the lower surface of the rat skin. The contents of the recipient chamber was constantly stirred with a magnetic stirrer during the experiment. Aliquots of 200 μL of the saline in the recipient chamber were removed at intervals of 1 h for 4 h; and analyzed by HPLC for either MENT on T. The saline remained in constant contact with the skin at all times. The Franz cell was maintained at 37° C. for the duration of the test.

[2] = Bioavailability of transdermal MENT gel formulations in rabbits (serum MENT by radioimmunoassay); assay type: in vivo, New Zealand white rabbits
Description: The bioavailability of three transdermal MENT gel formulations (2 mg MENT/g gel) (formulations O, F and T) were studied in rabbits. Three New Zealand white rabbits weighing 3.5-4.5 kg were used in each group. To each animal, 0.2 g gel (0.4 mg MENT) or 0.4 g gel (0.8 mg MENT) was applied to 5×5 cm or 10×10 cm area of shaved skin for three consecutive days. On days 1 and 3, blood samples were collected at 0, 1, 2, 4 and 8 hours after application of the gel. Serum MENT levels were determined by radioimmunoassay.

C[C@@H]1CC2=CC(=O)CC[C@@H]2[C@H]2CC[C@]3(C)[C@@H](O)CC[C@H]3[C@@H]21 [MENT, 7α-methyl-19-nortestosterone]
Permeation (concentrations and flux rates) through rat skin compared with testosterone ([1]; all other formulations (1 patch, 2 creams and 7 gels), FIGS. 3 to 7 and 9 to 13): considerably higher concentrations and flux rates than that of testosterone | Flux across rat skin compared with testosterone ([1]; certain dosage forms (FIGS. 3, 4, 6, 7, 10, 11 and 12)): more than double that of testosterone | Rate of skin penetration compared with T ([1]; gel of Example 2, 0.5 gm gel (1 mg steroid), 1-4 h, FIG. 1): faster rate than T | Steroid flux compared with T ([1]; gel of Example 2, each time period studied, FIG. 2): greater at each time period studied | Flux compared with MENT Ac ([1]; general statement, no data shown): generally greater than that of MENT Ac | Flux compared with testosterone ([1]; summary statement, depending upon the particular transdermal formulation): as much as twice that of testosterone or more | Dose dependence of bioavailability ([2]; 0.4 vs 0.8 mg MENT, Table 1): dose dependent | Permeation through rabbit skin / serum levels ([2]; gel formulations O, F and T, FIGS. 14 to 19): permeated through rabbit skin and give measurable serum levels
